# Measurements taken from patent US20140024653A1, “COMPOSITIONS AND METHODS FOR TREATING CANCER USING PI3K INHIBITOR AND MEK INHIBITOR” (priority 2011, published 2014).
# Key:
# [1] = tested on: A204; assay: SRB cell growth assay, 72 h; type: cell-based; conditions: Homo sapiens, most sensitive, z-score <−1.5
# Method: (§1) Cell growth and treatment were performed in 96-well microtitre plates CELLSTAR® (Greiner Bio-One, Germany). Cells harvested from exponential phase cultures by trypsinization were plated in 150 μl of media at optimal seeding densities. The optimal seeding densities for each cell line were determined to ensure exponential growth for the duration of the experiment. All cells growing without anticancer agents were sub-confluent by the end of the treatment as determined by visual inspection.
# (§2) 150 μl of cells, after a 24-hour pre-growth period, were treated by mixing with 50 μl of the compound containing media (resulting in a final DMSO concentration of 0.1%). The cells were allowed to grow at 37° C. for 72 hours. In addition, all experiments contained a few plates with cells that were processed for measurement immediately after the 24 hours recovery period. These plates contained information about the cell number that existed before treatment, at time zero, and served to calculate the cytotoxicity.
# (§3) After treatment, cells were precipitated by addition of 10% TCA. Prior to fixation, the media was aspirated as described. After an hour of incubation at 4° C., the plates were washed two times with 400 μl of deionized water. Cells were then stained with 100 μl of a 0.08% wt/v SRB. The plates were allowed to sit for at least 30 min. and washed six times with 1% acetic acid to remove unbound stain. The plates were left to dry at room temperature and bound SRB was solubilized with 100 μl of 10 mM Tris base. Measurement of optical density was performed at 560 nm on a Victor 2 plate reader (Perkin Elmer, Germany). The SRB values for A375 and H460 cell lines were near to saturation (2.5 OD units) due to the high protein content of these cells, but not cell confluence. The measurements for these cells were performed at 520 nm instead of 560 nm.
# (§4) Using these measurements, cellular responses can be calculated for incomplete inhibition of cell growth (GI), complete inhibition of cell growth (T GI) and net loss of cells (LC) due to compound activity. […] This is the drug concentration causing a 50% reduction compared to the net protein increase in control cells during the drug incubation period. In other words, GI50 is IC50 corrected for time zero. Similar to IC90, calculated GI90 values are also reported for all compounds tested. TGI was calculated from Ti=Tz. […] It was calculated as 100×[(Ti−Tz)/Tz]=−50. However, due to 72 hours treatment, low cell seeding density was required and LC50 could rarely be achieved.
# [2] = tested on: IMR90; assay: SRB cell growth assay, 72 h; type: cell-based; conditions: Homo sapiens, IMR-90, most sensitive, z-score <−1.5
# Method: as §1, §2, §3, §4
# [3] = tested on: SW620; assay: SRB cell growth assay, 72 h; type: cell-based; conditions: Homo sapiens, SW-620, non-sensitive, z score >1.5
# Method: as §1, §2, §3, §4
# [4] = chemical stability of dosing stock solution; type: physicochemical; conditions: in 1N HCl and water for injection, pH 3; in the dark at 4° C.
# Method: Compound (2a) formulation was prepared in water for injection. The stock solution was chemically stable 7 days in the dark at 4° C. […] The pH of the final solution was 3. […]
# [5] = tested on: PC-3, U87-MG, A2058, WM-266-4 and MCF7 xenografts; conditions: oral administration alone; PTEN-deficient PC-3, U87-MG, A2058, WM-266-4 or PIK3CA mutated MCF7 xenografts; cited from earlier work
# [6] = tested on: HEK293; assay: SRB cell growth assay, 72 h; type: cell-based, human; conditions: single agent, up to 50 μM
# Method: as §1, §2, §3, §4
# [7] = tested on: HT1080; assay: SRB cell growth assay, 72 h; type: cell-based, human
# Method: as §1, §2, §3, §4
# [8] = tested on: J82; assay: SRB cell growth assay, 72 h; type: cell-based, human; conditions: single agent, up to 50 μM
# Method: as §1, §2, §3, §4
# [9] = tested on: JAR; assay: SRB cell growth assay, 72 h; type: cell-based, human; conditions: single agent, up to 50 μM
# Method: as §1, §2, §3, §4
# [10] = tested on: JEG3; assay: SRB cell growth assay, 72 h; type: cell-based, human; conditions: single agent, up to 50 μM
# Method: as §1, §2, §3, §4
# [11] = tested on: MDAMB436; assay: SRB cell growth assay, 72 h; type: cell-based, human; conditions: single agent, up to 50 μM
# Method: as §1, §2, §3, §4
# [12] = tested on: MHHES1; assay: SRB cell growth assay, 72 h; type: cell-based, human; conditions: single agent, up to 50 μM
# Method: as §1, §2, §3, §4
# [13] = tested on: NCIH82; assay: SRB cell growth assay, 72 h; type: cell-based, human; conditions: single agent, up to 50 μM
# Method: as §1, §2, §3, §4
# [14] = tested on: PLCPRF5; assay: SRB cell growth assay, 72 h; type: cell-based, human; conditions: single agent, up to 50 μM
# Method: as §1, §2, §3, §4
# [15] = tested on: SF268; assay: SRB cell growth assay, 72 h; type: cell-based, human; conditions: single agent, up to 50 μM
# Method: as §1, §2, §3, §4
# [16] = tested on: COLO205; assay: SRB cell growth assay, 72 h; type: cell-based; conditions: Homo sapiens, COLO 205, most sensitive cell lines
# Method: as §1, §2, §3, §4
# [17] = tested on: HT29; assay: SRB cell growth assay, 72 h; type: cell-based; conditions: Homo sapiens, HT-29, most sensitive cell lines
# Method: as §1, §2, §3, §4
# [18] = tested on: SAOS2; assay: SRB cell growth assay, 72 h; type: cell-based; conditions: Homo sapiens, SAOS-2, highest tested concentration 50 μM, read-out: activity (estimated)
# Method: as §1, §2, §3, §4
# [19] = tested on: SF295; assay: SRB cell growth assay, 72 h; type: cell-based; conditions: Homo sapiens, SF-295, highest tested concentration 50 μM, read-out: activity (estimated)
# Method: as §1, §2, §3, §4
# [20] = tested on: SKMEL5; assay: SRB cell growth assay, 72 h; type: cell-based; conditions: Homo sapiens, SK-MEL-5, most sensitive cell lines
# Method: as §1, §2, §3, §4
# [21] = tested on: HCT116 tumor vascular permeability; assay: tumor vascular permeability, Evans Blue extravasation / Dextran-Fitc; type: in vivo, SCID mice; conditions: (1) 10 mg/kg oral daily day 11 to day 13
# Method: HCT116 tumor cells were implanted subcutaneously in the intra-scapular region in SCID mice. […] Each agent was given by oral route on a daily schedule. Tumor growth was monitored throughout the experiment by callipering the tumors. To quantify tumor vascular permeability, tumors were excised under ketamine/Xylazine (120/6 mg/kg ip) anesthesia at day 13, 4 hours post last treatment, 30 min after 0.5% Evans Blue iv injection, and 2 min post Dextran-Fitc 100 mg/kg iv injection. Tumors were then snap frozen, and 25 μm sections obtained for fluorescence quantification. Tumors sections were imaged with Icyte at 488 nm for vascular Dextran-Fitc determination and at 633 nm for Evans-Blue extravasation determination. Respective fluorescence were quantified as the sum of integral phantoms of fluorescence intensity and expressed as the mean ratio of Evans-Blue signal/Dextran-Fitc Signal.
# [22] = tested on: 217 kinases; conditions: tested at 10 μM; cited from earlier work
# [23] = mice and rats; cited from earlier work
# [24] = mice; cited from earlier work
structure (smiles),measurement,setting,value
"CCn1c(=O)c(-c2ccn[nH]2)cc2c(C)nc(N)nc21 [Compound (2b), 2-amino-8-ethyl-4-methyl-6-(1H-pyrazol-5-yl)pyrido[2,3-d]pyrimidin-7(8H)-one]",GI50,[1],< 500 nM
same,GI50,[2],< 500 nM
same,GI50,[3],> 4000 nM
same,stock solution chemically stable,[4],7 days
same,tumor growth,[5],inhibits tumor growth
"O=C(NC[C@H](O)CO)c1ccncc1Nc1ccc(I)cc1F [Compound (1), N—((S)-2,3-dihydroxypropyl)-3-(2-fluoro-4-iodo-phenylamino)isonicotinamide]",activity (cell growth inhibition),[6],minimal activity
same,sensitivity,[7],very sensitive
same,activity (cell growth inhibition),[8],minimal activity
same,activity (cell growth inhibition),[9],minimal activity
same,activity (cell growth inhibition),[10],minimal activity
same,activity (cell growth inhibition),[11],minimal activity
same,activity (cell growth inhibition),[12],minimal activity
same,activity (cell growth inhibition),[13],minimal activity
same,activity (cell growth inhibition),[14],minimal activity
same,activity (cell growth inhibition),[15],minimal activity
same,IC50,[16],4.8 to 8 nM
same,IC50,[17],4.8 to 8 nM
same,IC50,[18],> 50000 nM
same,IC50,[19],> 50000 nM
same,IC50,[20],4.8 to 8 nM
same,decrease of the Evans-Blue/Dextran-Fitc ratio compared to control,[21],−9%
same,activity against 217 kinases,[22],no activity
same,clearance,[23],15 to 43.3 mL/min/kg
same,half-life,[23],2.2 to 4.7 h
same,oral bioavailability,[23],52-57%
same,two-week maximum tolerated dose,[24],60 mg/kg BID
